The test system of one assay is α1. In words: α1 (no method described). The assay is classed as binding.
The target of assay [1] is T1, dopamine D2 receptor (Rattus norvegicus, UniProt P61169). As to the kind of experiment: Ratio Ant/Ag (intrinsic activity from low-affinity/high-affinity agonist state). The note with it: Spiper. IC50 / Quin. IC50. It counts as binding. The text has this: Efforts to induce antipsychotic activity with dopamine autoreceptor agonists have been successful (Corsini et al. Adv. Biochem. […] […] et at. […] A method for determining intrinsic activity at the dopamine D2 receptor was recently reported [Lahti et al., Mol. Pharm. […] Intrinsic activity is predicted using the ratio of the "low-affinity agonist" (LowAg) state of the receptor and the "high-affinity agonist" ([…]) state of the receptor, […]. These ratios correlate with the agonist, partial agonist, and antagonist activities of a given compound, which activities characterize a compounds ability to elicit an antipsychotic effect.

Assay [2] has as its target T1, dopamine D2 receptor. As to the kind of experiment: 3H-spiroperidol (Spiper.) binding, affinity for the dopamine D-2 receptor, homogenized limbic brain tissue. More on the design: homogenized limbic brain tissue; from tissue; host or cells: limbic brain tissue, homogenized.
Another assay deals with T2, dopamine autoreceptor (Rattus norvegicus, UniProt P61169).
T2 construct: homogenized rat striatal brain tissue; from tissue; host or cells: rat striatal brain tissue, homogenized
As to the kind of experiment: 3H-quinpirole (Quin.) binding, affinity for the dopamine autoreceptor, homogenized rat striatal brain tissue.

T1 sequence (P61169 whole entry): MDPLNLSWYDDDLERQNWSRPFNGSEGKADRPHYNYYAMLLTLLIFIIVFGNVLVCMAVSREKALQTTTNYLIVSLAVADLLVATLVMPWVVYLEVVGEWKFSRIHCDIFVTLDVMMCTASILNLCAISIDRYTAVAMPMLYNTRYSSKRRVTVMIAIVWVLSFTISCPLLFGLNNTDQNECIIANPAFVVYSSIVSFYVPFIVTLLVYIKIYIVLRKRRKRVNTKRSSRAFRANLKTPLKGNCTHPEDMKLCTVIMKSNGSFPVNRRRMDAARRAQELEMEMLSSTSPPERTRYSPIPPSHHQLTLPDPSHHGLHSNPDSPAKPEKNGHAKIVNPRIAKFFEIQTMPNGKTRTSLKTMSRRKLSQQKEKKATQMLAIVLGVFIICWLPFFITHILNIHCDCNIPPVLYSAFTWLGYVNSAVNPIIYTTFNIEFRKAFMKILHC
T2 sequence (P61169 whole entry): as above

For `CCCNCC1CCc2ccc(O)cc2O1` (centres unmarked), the IC50 in the assay on α1 was determined as 1160 nM. That is a single-digit micromolar value.

Turning to `CCCN(CCC)CC1CCc2ccc(O)cc2O1` (centres unmarked), on dopamine D2 receptor [1], the “Ratio Ant/Ag” value is on record as 88. In addition, the results for the IC50 at dopamine D2 receptor [2] and at dopamine autoreceptor were 8960 nM and 102 nM, respectively.

As for `CCCCNCC1CCc2ccc(OC)cc2O1` (centres unmarked), the “Ratio Ant/Ag” value at dopamine D2 receptor [1] worked out at 32. The IC50 worked out at 23600 nM at dopamine D2 receptor [2] and 733 nM at dopamine autoreceptor.

Take `CCCCCCNCC1CCc2ccc(O)cc2O1` (centres unmarked): the IC50 in the assay with α1 turned out to be 221 nM.

`COc1ccc2c(c1)OC(CNCCC(C)C)CC2` (centres unmarked): the “Ratio Ant/Ag” value on dopamine D2 receptor [1] was determined as 32. For the same compound, the figures for the IC50 on dopamine D2 receptor [2] and at dopamine autoreceptor were 26500 nM and 831 nM, respectively.

(Values after patent US5684039A, “Chroman-2-ylmethylamino derivatives” (American Home Products Corporation, priority 1996, dated 1997).)
